Measurements published in patent US20230139883A1, “Peptides for Inducing Differentiation” (Shimadzu Corporation, priority 2020, published 2023).

How the values were obtained:
FGFR2 = assay: Yeast display screening (MACS/FACS) against FGFR2 with Sanger sequencing of single colonies; assay type: binding; conditions: frequency of the clone among randomly selected single colonies after FGFR2 screening
Description: Cells were then charged to an LS column attached to a magnetic stand. In order to remove yeast cells not bound to FGFR2, 7 mL of PBSM was flowed through the LS column twice. The LS column was then removed from the magnetic stand and FGFR2-binding yeast clones were collected by flowing SDCAA medium and cultured. The above operations were deemed as one round, and a total of three rounds were performed (Table 10). Next, yeast clones with high binding activity were screened from the yeast collected by MACS, using FACS (Fluorescence-activated cell sorting). FGFR2-Fc and mouse anti-FLAG antibodies were bound to the yeast library, followed by binding of anti-mouse IgG-Alexa488 and anti-human Fc antibody-Alexa647. […] The binding of the peptide to FGFR2 can also be detected by the fluorescence intensity of Alexa647. With that, yeast clones with high fluorescence intensities of Alexa488 and Alexa647 were collected by FACS cell sorter (BD FACS AriaIII).
The phage library eluted after panning of Example 7 (Table 9: Input phage (Round 4)) was subjected to Human IgG Fc-immobilized plate, and negative selection was performed by collecting unbound phages. The phage library was then acted to FGFR3 prepared to concentrations of 100 nM, 10 nM, and 1 nM. Bound phages were then collected. The genomic DNA of the collected phages was extracted, samples were prepared according to Illumina's protocol for Miseq, and a comprehensive analysis of the phage genomic DNA was performed. Among the sequences obtained, 20 sequences high incidence rates were selected (Table 11). The yeast cells acquired in the screening of Example 8 were seeded onto SDCAA agar plates and cultured. Fourteen single colonies formed on the agar plates were randomly selected, and for each clone, the peptide DNA sequence incorporated into the yeast expression plasmid was analyzed using the Sanger method (Table 12).

FGFR3 = assay: Phage display selection against FGFR3 with Miseq analysis of the bound phages; assay type: binding; conditions: for 1 nM Num. of reads: phage library after panning Round 4, bound to 1 nM FGFR3; for 10 nM Num. of reads: phage library after panning Round 4, bound to 10 nM FGFR3; for 100 nM Num. of reads: phage library after panning Round 4, bound to 100 nM FGFR3; for 1 nM Ranking / 10 nM Ranking / 100 nM Ranking: rank by number of reads; for 1 nM Ranking: 1 nM FGFR3; for 10 nM Ranking: 10 nM FGFR3; for 100 nM Ranking: 100 nM FGFR3
Description: The collected phage library was mixed with 100 nM of FGFR3 solution and allowed to react overnight at 4° C. (Table 9: Panning Round 1). After the reaction, the binding phages were captured by magnetic beads modified with protein A, and washed three times with PBS-T, followed by eluting the bound phages with Gly-HCl (pH 2.0). After neutralizing with 2M Tris, the pages were infected to E. coli (TG1 strain). After 4 hours of incubation, helper phages were added, and the E. coli (TG1 strain) were allowed to produce phages overnight. Next, phage solution was prepared from the culture supernatant. The prepared phage solution was mixed with FGFR3 solution and allowed to react overnight at 4° C. (Table 9: Panning Round 2). After the reaction, the bound phages were eluted. Phage solution prepared in the same way was mixed with FGFR3 solution and allowed to react at 4° C. for 1 hour (Table 9: Panning Round 3). After the reaction, the bound phages were eluted. This operation was further repeated, and after Panning Round 4, the bound phages were eluted. Note that as the rounds proceeded, the number of washes with PBS-T was increased. (Table 9). The titer of the Output phage in each round was also determined. The titer of phage was determined from the number of colonies obtained by incubating the E. coli TG1 strain contacted with the phage at 37° C. overnight. The phage library eluted after panning of Example 7 (Table 9: Input phage (Round 4)) was subjected to Human IgG Fc-immobilized plate, and negative selection was performed by collecting unbound phages. The phage library was then acted to FGFR3 prepared to concentrations of 100 nM, 10 nM, and 1 nM. Bound phages were then collected. The genomic DNA of the collected phages was extracted, samples were prepared according to Illumina's protocol for Miseq, and a comprehensive analysis of the phage genomic DNA was performed. Among the sequences obtained, 20 sequences high incidence rates were selected (Table 11). The yeast cells acquired in the screening of Example 8 were seeded onto SDCAA agar plates and cultured. Fourteen single colonies formed on the agar plates were randomly selected, and for each clone, the peptide DNA sequence incorporated into the yeast expression plasmid was analyzed using the Sanger method (Table 12).

iPS-hFB [1] = assay: Differentiation induction of iPS cells into cardiomyocytes: RT-qPCR of cardiomyocyte markers cTNT and Actinin; conditions: Day 23
iPS-hFB [2] = assay: Differentiation induction of iPS cells into cardiomyocytes: observation of beating cell clusters; conditions: Example 3: 0.05 μM peptide + Activin A on Day 1, no bFGF
[3] = Example 3, protocol 5, 0.05 μM, compared to protocols 1, 3, 4 or 6

Row | Molecule | Frequency (FGFR2) | 1 nM Num. of reads (FGFR3) | 10 nM Num. of reads (FGFR3) | 100 nM Num. of reads (FGFR3) | 1 nM Ranking (FGFR3) | 10 nM Ranking (FGFR3) | 100 nM Ranking (FGFR3) | other results
1 | CAAELAALEAELAALEGGGGGGG----FLRNLHIKLYLLQFAC [FGFR_Y07] | 1 |  |  |  |  |  |  | 
2 | CAAELAALEAELAALEGGGGGGG----KLMDLHYQLYNLFIAC [FGFR_Y01] | 1 |  |  |  |  |  |  | 
3 | CAAELAALEAELAALEGLDYHTVLSTGKLMVLKRKLNILKLAC [F3-100n250] |  | 966 | 856 | 1096 | 20 | 14 | 16 | 
4 | CAAELAALEAELAALEGLHTLTLMQTGKLLVLKMKLRELKWAC [F3-100n192] |  | 1100 | 707 | 857 | 15 | 23 | 28 | 
5 | CAAELAALEAELAALEGPPRPHLPPLGKLFLLKFKLYLLKGAC [FGFR_Y09] | 1 |  |  |  |  |  |  | 
6 | CAAELAALEAELAALEGPSRVGSRRRGKLNLLKYKLHGLKLAC [FGFR_Y13] | 1 |  |  |  |  |  |  | 
7 | CAAELAALEAELAALEGQKHFTLGGLGKLIVLKKQLRILKCAC [F3-100n174] |  | 1668 | 1223 | 1811 | 8 | 7 | 6 | 
8 | CAAELAALEAELAALEGRPVRTVLTNGKLMVLKSKLQELKHAC [F3-100n182] |  | 1723 | 1143 | 1423 | 7 | 8 | 8 | 
9 | CAAELAALEAELAALEGRTFTIGEVKGKLQGLIMKLHHLKDAC [F3-100n116] |  | 1895 | 2291 | 3236 | 6 | 2 | 1 | 
10 | CAAELAALEAELAALEGSTARTLMQVGKLEMLKYKLLELKCAC [F3-100n3] |  | 1084 | 613 | 850 | 17 | 29 | 29 | 
11 | CAAELAALEAELAALEGVKELTLGTVGKLMSLKYKLWSLKQAC [F3-100n410] |  | 2547 | 1717 | 2279 | 4 | 5 | 5 | 
12 | CAAELAALEAELAALEGVRPETMSQVGKLLVLKHRLGQLKRAC [F3-100n9] |  | 3326 | 2152 | 2566 | 1 | 3 | 4 | 
13 | CAAELAALEAELAALEVGRVKTLGRYGKLMVLKHQLRNLKCAC [F3-100n161] |  | 1045 | 903 | 1261 | 19 | 10 | 9 | 
14 | CAHHLASLEYDLAILEGGDGGGG----HLARLKRQLAELKNAC [FGFR_Y16] | 1 |  |  |  |  |  |  | 
15 | CAKELLALKRELKALQGGGGGGG----KLRALQLKLYALLLAC [FGFR_Y11] | 2 |  |  |  |  |  |  | 
16 | CALELLALRGELEALRGGGGGGG----KLGALHLKLFALQWAC [FGFR_Y08] | 1 |  |  |  |  |  |  | 
17 | CAQELRALLRELQALGGGGGGGG----KLGALVFKLYALMLAC [FGFR_Y15] | 1 |  |  |  |  |  |  | 
18 | CAQELVALHMELRALGGGGGGGG----KLQALYLKLFALDHAC [FGFR_Y04] | 1 |  |  |  |  |  |  | 
19 | CARELQALGKELKALKGGGGGGG----KLRALQLKLYALQVAC [FGFR_Y10] | 1 |  |  |  |  |  |  | 
20 | CARELQALLKELQALGGGGGGGG----KLLALFVKLYALRLAC [FGFR_Y02] | 1 |  |  |  |  |  |  | 
21 | CARELRALRRELRALQGGGGGGG----KLHALHRKLFALMVAC [FGFR_Y06] | 1 |  |  |  |  |  |  | 
22 | CAVELYALHRELYALYGGGGGGS----KLYALYLKLLALQLAC [FGFR_Y05] | 1 |  |  |  |  |  |  | 
23 | CPRELEALRRELGALMGGGGGGG----KLNALMLKLYALHNAC [FGFR_Y14] | 1 |  |  |  |  |  |  | 
24 | 100nX-Dimer: a dimerized peptide of 100nX (SEQ ID NO: 9) (dimerized) chain 1: CAAELAALEAELAALEGVPGDNNGTRGKLYHLKNKLHRLKNAC chain 2: CAAELAALEAELAALEGVPGDNNGTRGKLYHLKNKLHRLKNAC |  |  |  |  |  |  |  | ACTN2 expression level (iPS-hFB [1]; [3]): significantly increased; cTNT expression level (iPS-hFB [1]; [3]): significantly increased; gene expression levels (cTNT, ACTN2) (iPS-hFB [1]; Example 4: peptide in combination with bFGF, compared to conventional protocol 1): significantly increased; day on which beating cell clusters were observed (iPS-hFB [2]): 11 days
